The series can be described thus: in vitro. Conditions: human, hela cells, % viability.

The term viability denotes a read-out of living cells in per cent, often relative to untreated cells. Turning to `COc1ccc(CCNC(=O)C2CCCN(S(=O)(=O)c3ccc4ccccc4c3)C2)cc1` (centres unmarked) [CBK269601], the viability at 28.5 h, 10 µM turned out to be 101%.
Consider `O=C(c1cccs1)N(Cc1ccco1)Cc1cc2ccccc2[nH]c1=O` [CBK269602], for which the viability at 28.5 h, 10 µM amounted to 104%.
To `COc1ccc(Cl)cc1S(=O)(=O)N1CCC(C(=O)O)CC1` [CBK269607] belongs 79.1%; to `Cc1cccc(OC(C)C(=O)Nc2ccc(S(=O)(=O)N3CCOCC3)cc2)c1` (centres unmarked) [CBK269609], 106%.
Regarding `CC(=O)NCCc1nc2ccccc2n1CCOc1ccc(Cl)cc1` [CBK269610], the viability at 28.5 h, 10 µM amounted to 107%.
To `c1ccc(Cn2c(CN3CCCC3)nc3ccccc32)cc1` [CBK269612] belongs 87.7%; to `O=C(NCCNC(=O)c1ccccn1)c1cccc(F)c1` [CBK269613], 78.3%.
The figure for `O=C(CSc1nnc(COc2cccc3cccnc23)n1-c1ccccc1)N1CCCC1` [CBK269614] is 79.1%.
To `O=C(CSCCO)Nc1ccc(N2CCOCC2)cc1` [CBK269616] belongs 89.7%; to `O=S(=O)(NC1CCCCC1)c1ccc(S(=O)(=O)N2CCOCC2)cc1` [CBK269618], 102%; to `C=CCn1c(SCC(=O)Nc2cccc(F)c2)nnc1-c1ccccc1O` [CBK269620], 83%.
Consider `O=C(O)c1ccc(CNCc2ccc(-c3ccc(F)cc3)o2)cc1` [CBK269622C], for which the viability at 28.5 h, 10 µM worked out at 90.9%.
The figure for `Cc1onc(-c2ccccc2Cl)c1C(=O)Nc1ccc(CC(=O)O)cc1` [CBK269623] is 89.2%; for `CC(=O)c1ccccc1OCCOCCN1CCCC(C)C1` (centres unmarked) [CBK269625C] it is 106%.
Take `COc1cccc(NC(=O)CSc2nnc(CC(C)C)n2C)c1` [CBK269626]: the viability at 28.5 h, 10 µM was 103%.
As for `Cn1c(CN2CCOCC2)nnc1SCC(=O)Nc1cccc(F)c1` [CBK269629], the viability at 28.5 h, 10 µM amounted to 80.2%.
Take `O=C(CC1(O)C(=O)N(Cc2ccc3c(c2)OCO3)c2ccccc21)c1cccnc1` (centres unmarked) [CBK269633]: the viability at 28.5 h, 10 µM came to 103%.
The figure for `O=C(Nc1ccc(Cc2ccncc2)cc1)c1sc2c([N+](=O)[O-])cccc2c1Cl` [CBK269635] is 97.1%; for `Cc1cc(OC(C)C(=O)Nc2ncccc2C)ccc1Cl` (centres unmarked) [CBK269637] it is 78.4%.
The figure for `COc1ccc(CSc2nnc(-c3ccncc3)n2C)cc1[N+](=O)[O-]` [CBK269638] is 87.7%; for `O=C(CC1(O)C(=O)N(CN2CCOCC2)c2ccccc21)c1ccc2c(c1)OCO2` (centres unmarked) [CBK269639] it is 99.3%.
The figure for `O=C(CCc1c[nH]c2ccccc12)OCc1nnc(-c2ccccc2)o1` [CBK269642] is 101%; for `O=C(NCCNc1ccc(Cl)cc1[N+](=O)[O-])c1c(F)cccc1F` [CBK269643] it is 97.6%.
For the compound `CC(NC(=O)c1ccccc1)c1nnc(SCC(=O)c2ccccc2)n1C` (centres unmarked) [CBK269644], the viability at 28.5 h, 10 µM amounted to 82.3%.
The figure for `O=C(c1cccc(S(=O)(=O)Nc2ccccn2)c1)N1CCCc2ccccc21` [CBK269645] is 84.9%; for `C=CCOc1ccc(OCCN2CC(C)OC(C)C2)cc1` (centres unmarked) [CBK269646C] it is 112%.
To `O=C(Nc1ccc2c(c1)OCO2)C1CCN(S(=O)(=O)c2ccc(Oc3ccccc3)cc2)CC1` [CBK269648] belongs 85.1%; to `Cc1cccc(C(=O)Nc2cc(NC(=O)c3cccc(C)c3)cc(C(=O)O)c2)c1` [CBK269649], 98%.
To `Cc1ccc(OCCCN2CCN(C)CC2)c(Cc2ccccc2)c1` [CBK269650C] belongs 104%; to `Cc1c(NCc2ccccn2)cccc1C(=O)O` [CBK269651], 86.9%; to `Cc1cc(I)ccc1OCCCCN1CCN(C)CC1` [CBK269652C], 91.3%.
In the case of `O=C(Nc1cccc(CCc2ccccn2)c1)c1ccc([N+](=O)[O-])cc1` [CBK269653], the viability at 28.5 h, 10 µM came out at 86.9%.
With `Cn1c(SCC(=O)Nc2ccc(Oc3ccc(Cl)cc3)cc2)nnc1-c1ccncc1` [CBK269654], the viability at 28.5 h, 10 µM was 95.6%.
Take `O=C(Oc1ccccc1)c1cc(S(=O)(=O)N2CCOCC2)c(Cl)cc1Cl` [CBK269656]: the viability at 28.5 h, 10 µM was 83.5%.
For the compound `O=C(NCc1cccs1)c1cc(S(=O)(=O)N2CCOCC2)c(Cl)cc1Cl` [CBK269657], the viability at 28.5 h, 10 µM is 97.3%.
The figure for `Cc1nnc(SCC(=O)NCc2c(C)c(Cl)cc(C(C)C)c2O)s1` [CBK269662] is 86.1%.
To `COc1ccc(C(=O)Nc2ccccc2O)cc1S(=O)(=O)N1CCCCC1` [CBK269665] belongs 92.6%; to `O=C(COc1ccc(CCO)cc1)Nc1ccccc1-c1ccccc1` [CBK269666], 80.9%; to `O=C(CN1C(=O)COc2ccc(Cl)cc21)Nc1cccc(C(=O)O)c1` [CBK269667], 93.1%.
`O=C(CSc1ccc(Cl)cc1)N1CCN(c2ccc([N+](=O)[O-])c(N3CCOCC3)c2)CC1` [CBK269670]: the viability at 28.5 h, 10 µM was 85.3%.
For `C=CCc1cc(C)cc(C)c1OCCN1CCN(C)CC1` [CBK269672C], the viability at 28.5 h, 10 µM amounted to 101%.
Consider `Cc1ccc(-n2c(SCC(N)=O)nnc2-c2ccccc2O)c(C)c1` [CBK269673], for which the viability at 28.5 h, 10 µM is 89.6%.
To `O=C(NCc1cccnc1)c1ccc2c(c1)C(=O)N(Cc1ccco1)C2=O` [CBK269675] belongs 88.6%.
To `CCOc1ccc(NC(=O)C(C)O)c(NC(=O)c2ccccc2Cl)c1` (centres unmarked) [CBK269678] belongs 92.7%.
The figure for `COc1cc(CNc2cc(C(=O)O)ccc2C)cc(Br)c1OC` [CBK269679] is 95.3%; for `O=C(CN1C(=O)COc2ccccc21)NCc1ccco1` [CBK269682] it is 94.8%; for `O=C(CSc1ncn(-c2ccccc2)n1)Nc1c(Cl)cccc1Cl` [CBK269683] it is 94.7%.
For `O=C(CSc1nnc(-c2ccccc2)c(-c2ccccc2)n1)Nc1ccc(N2CCOCC2)cc1` [CBK269684], the viability at 28.5 h, 10 µM worked out at 89.7%.
To `CCC(C(=O)Nc1ccc(OC(C)=O)cc1C(=O)O)c1ccccc1` (centres unmarked) [CBK269685] belongs 94.5%.
Consider `COc1ccc(OCC(=O)Nc2ccc(CN3CCOCC3)cc2)cc1` [CBK269686], for which the viability at 28.5 h, 10 µM was 105%.
Regarding `CC1CN(CCOc2ccccc2C=O)CC(C)O1` (centres unmarked) [CBK269687C], the viability at 28.5 h, 10 µM was determined as 101%.
The figure for `Cc1cc(OC(C)C(=O)Nn2cnnc2)ccc1Cl` (centres unmarked) [CBK269690] is 98.1%; for `O=C(NCC1CCCO1)c1cc(S(=O)(=O)N2CCOCC2)c(Cl)cc1Cl` (centres unmarked) [CBK269691] it is 90.3%.
The figure for `Nc1nc(CSc2nnc(-c3ccco3)n2-c2ccccc2)cs1` [CBK269693] is 97.9%; for `Cc1nnc(Sc2ccc([N+](=O)[O-])cc2Cl)n1Cc1ccccc1` [CBK269694] it is 102%.
With `CCn1c(SCC(=O)c2ccc(F)cc2)nnc1C(C)Oc1ccccc1` (centres unmarked) [CBK269695], the viability at 28.5 h, 10 µM was determined as 108%.
The figure for `Cc1cc(OC(C)C(=O)Nc2ccccc2C(=O)N2CCCCC2)ccc1Cl` (centres unmarked) [CBK269696] is 104%; for `Cc1cc(C)c(C)c(S(=O)(=O)Nc2cc(S(=O)(=O)N3CCOCC3)ccc2F)c1C` [CBK269698] it is 61.9%; for `O=C(c1cccc(-c2cc3ccccc3oc2=O)c1)N1CCN(c2ccc([N+](=O)[O-])cc2Cl)CC1` [CBK269704] it is 101%.
To `Cc1ccc(-c2nnc(SCc3cccc4nsnc34)n2C)cc1` [CBK269706] belongs 92.7%; to `c1ccc(-c2nnc(COc3ccc(-c4cnc5ccccc5n4)cc3)o2)cc1` [CBK269707], 90.4%.
To `Cc1cc(OC(C)C(=O)Nc2ccccc2C(=O)N2CCCC2)ccc1Cl` (centres unmarked) [CBK269710] belongs 94.3%.
Regarding `O=C(CSc1nc2ccccc2[nH]1)Nc1ccc(OC(F)(F)F)cc1` [CBK269711], the viability at 28.5 h, 10 µM worked out at 104%.
The figure for `COc1cc(C(C)=O)ccc1OCCCCN1CCOCC1` [CBK269713C] is 98.2%; for `C=CCOc1ccccc1OCCCN1CCN(C)CC1` [CBK269714C] it is 95.6%.
To `Cc1cccc(C)c1OCc1nnc(SCC(=O)c2ccc(F)cc2)n1C` [CBK269715] belongs 91.2%.
In the case of `CC(C)(C)C(=O)NC(=S)Nc1ccc(Cc2ccncc2)cc1` [CBK269717], the viability at 28.5 h, 10 µM was found to be 91.5%.
The figure for `Cc1ccc(C)c(OCCNCc2ccco2)c1Cl` [CBK269718C] is 98.3%; for `Cc1ccccc1NC(=O)Cc1nnc(SCC(=O)c2ccccc2)n1C` [CBK269719] it is 101%; for `Clc1ccc(Cl)c(-c2ccc(CNCc3cccnc3)o2)c1` [CBK269720C] it is 103%.
Take `O=C(Nc1ccc(NC(=O)c2cc(O)nc3ccccc23)cc1)c1ccccc1` [CBK269722]: the viability at 28.5 h, 10 µM was found to be 106%.
To `Cc1ccc(S(=O)(=O)N2CCOCC2)cc1C(=O)Oc1cccc2cccnc12` [CBK269726] belongs 98%.
Take `Cc1cccc(OCC(=O)Nc2sc3c(c2C(N)=O)CCC3)c1C` [CBK269729]: the viability at 28.5 h, 10 µM came out at 94.8%.
The figure for `Cc1cc(OC(C)C(=O)Nc2nnc[nH]2)ccc1Cl` (centres unmarked) [CBK269731] is 87%; for `Cn1c(SCc2ccc([N+](=O)[O-])cc2)nnc1C(O)c1ccccc1` (centres unmarked) [CBK269735] it is 88.6%; for `COc1ccc(C(=O)Nc2ccc(CC(=O)O)cc2)cc1` [CBK269736] it is 95%.
The figure for `Cc1cccc(C)c1OCc1nnc(SCc2ccc([N+](=O)[O-])cc2)n1C` [CBK269737] is 105%.
As for `Cc1nnc(SCc2nnc(-c3ccccc3)o2)n1Cc1ccccc1` [CBK269743], the viability at 28.5 h, 10 µM came to 92.2%.
To `CS(=O)(=O)Nc1ccccc1C(=O)NCCCN1CCOCC1` [CBK269745] belongs 112%.
The figure for `O=C(Nc1cccc(O)c1)c1ccc(NC(=O)C2CCCO2)cc1` (centres unmarked) [CBK269746] is 91.6%.

Source of the values: publication PMC12040169 (PLOS Biology, 2025).
